Experimental data published in US6716422B1, “Vaccine adjuvants for immunotherapy of melanoma” (ARCH Development Corporation, priority 1998, dated 2004).
Ends that are not written are not given here.

Tests used:
[1] = cited from earlier work
[2] = tested on: advanced renal cell carcinoma; conditions: cited from earlier work
[3] = cited from earlier work; remark: listed apart in the source
[4] = room temperature; cited from earlier work
[5] = tested on: melanoma cell lines expressing MAGE-3; conditions: activated B cells or dendritic cells, HLA-A2 donor; only if IL-12 included during initial stimulation; cited from earlier work
[6] = tested on: refractory metastatic melanoma; assay: Human vaccination study: clinical outcome; format: in vivo; conditions: one line per patient
Description: Evaluation of tumor regression is a secondary endpoint in this study. Tumor masses are characterized carefully with bidimensional measurements.
Criteria for a Partial Response (PR): 50% reduction in the sum of the product of the largest perpendicular diameters of the indicator lesions identified prior to therapy.
Criteria for a Complete Response (CR): total disappearance of all evidence of tumor without appearance of new lesions.
Criteria for Progressive Disease (PD): appearance of new lesions; and/or fifty percent increase in the sum of the product of the largest perpendicular diameters of the indicator lesions.
Criteria for Stable Disease (SD): Failure to meet the criteria for a Partial Response, Complete Response, or Progressive Disease.

[7] = tested on: peptide-specific, IFN-γ-producing CD8+ T cells; assay: Human vaccination study: peptide-specific T cell response; conditions: one line per patient
Procedure: Following immunization, assays for peptide specific CTL activity and cytokine production, in particular IFN-γ were conducted.
For each vaccination, 100 cc heparinized blood was obtained and PBMC isolated by Lymphoprep centrifugation. A portion of cells was set aside and separated into CD8+ and CD8-fractions for cryopreservation.
Pulsed PBMC were irradiated (2000 rad), centrifuged, and resuspended in 2 cc DPBS for injection.
Injection of pulsed PBMC was performed subcutaneously, divided between 2 sites, either in upper arms or proximal legs.
rhIL-12, at the assigned dose level (ng/kg), was injected subcutaneously near one of the two vaccine sites.
The entire procedure was repeated every 3 weeks, with clinical reevaluation every 3 cycles.
In vitro expansion of CD8^+ T cells for testing was performed using minimal activation conditions: peptide-pulsed CD8-negative cells as APCs, only 10 U/ml rIL-2 added on day 2 of each stimulation, with one 6-day stimulation followed by a second 4-5 day stimulation.

[8] = Relative hydrophilicity/solubility of tumor peptides; format: physicochemical
Procedure: Peptides encoded by several of the unique tumor antigens of the tum^− variants have been defined, such as the P198 peptide used in one of the examples herein. […] Therefore, initial peptide-based immunization studies were performed using the more soluble P198 peptide. Information gained was then examined using P1A peptide as well. Studies with P1A are important in order to measure efficacy of immunization in vivo in terms of protection against living tumor challenge and regression of pre-established tumors. These types of studies would not be possible with P198 because that tumor is rejected spontaneously.

rhIL-12: recombinant human interleukin-12, manufactured by the Genetics Institute
Toxicities ([1]; intravenous, 3-1000 ng/kg/day): transient cytopenias (nadirs occurring 2-5 days after treatment), reversible increases of transaminases and bilirubin, transient hyperglycemia, stomatitis, and capillary leak syndrome
Maximally tolerated dose ([1]; intravenous, single test dose, 2 wk later daily for 5 days, every 3 wk): 500 ng/kg/day
Tumor responses ([1]; patients with various malignancies): several tumor responses observed
Patients requiring hospitalization for adverse events ([2]; 500 ng/kg/day intravenously 5 times per wk, 16 day rest): 12 of the 17
Deaths attributed to rhIL-12 ([2]; 500 ng/kg/day intravenously): Two
Patient deaths ([2]; 500 ng/kg/day intravenously): 4
Tolerability ([3]; in vivo): well tolerated
Renal cell carcinoma patients with a minor response ([3]; subcutaneous schedule): Two
Time within which unit doses in a syringe must be used [4]: ≤ 4 h

FLWGPRALV [Mage3]
Induction of specific CTL [5]: specific CTL induced
Clinical Outcome ([6]; IL-12 dose 0): PD (appearance of new lesions; and/or fifty percent increase in the sum of the product of the largest perpendicular diameters of the indicator lesions)
Clinical Outcome ([6]; IL-12 dose 30 ng/kg): PD (appearance of new lesions; and/or fifty percent increase in the sum of the product of the largest perpendicular diameters of the indicator lesions)
Clinical Outcome ([6]; IL-12 dose 100 ng/kg): PD (appearance of new lesions; and/or fifty percent increase in the sum of the product of the largest perpendicular diameters of the indicator lesions)
Evidence Immunized? ([7]; IL-12 dose 0): No
Evidence Immunized? ([7]; IL-12 dose 30 ng/kg): Yes

KYQAVTTTL [P198 peptide]
Hydrophilicity relative to P1A peptide [8]: more hydrophilic than the P1A peptide
